These results are taken from patent publication US20240294541A1, “COMPOUNDS CONSTITUTING C20-MODIFIED SALINOMYCIN DERIVATIVES, A METHOD FOR OBTAINING THE SAME, A COMPOSITION CONTAINING THE SAME AND A USE OF SAID COMPOUNDS” (FILECLO SPOLKA Z OGRANICZONA ODPOWIEDZIALNOSCIA, priority 2021, published 2024).

For orientation: IC50 means the concentration that inhibits the measured activity by half.

SMILES strings stand for the structures.

Type in all cases: cell-based
In experiment [1] the test system is MV-4-11 (human biphenotypic leukaemia). The experiment is described as follows: In vitro cytotoxicity, MTT assay, MV-4-11. The following applies: for IC50: Homo sapiens, MV4-11, read-out: IC50 (nM) MV4-11. For orientation: Formazan colour is commonly taken as a measure of viable cells.
Experiment [2] concerns BALB/3T3 (normal mouse fibroblasts). The experiment in a line: In vitro cytotoxicity, SRB assay, normal BALB/3T3 fibroblasts. Particulars: Table 5; BALB/3T3 normal mouse fibroblasts; read-out: IC50 (nM) BALB3T3 normal cells. (Sulforhodamine B stains cellular protein and so reports cell mass.)
Experiment [3] relates to A2780Cis (cisplatin-resistant human ovarian cancer). The experiment is described as follows: In vitro cytotoxicity, SRB assay, A2780Cis. The following applies: for IC50: Homo sapiens, A2780cis, read-out: IC50 (nM) A2780Cis.

For `CC[C@@H](C(=O)[C@@H](C)[C@@H](O)[C@H](C)[C@@H]1O[C@@H]([C@@H](CC)C(=O)O)CC[C@@H]1C)[C@H]1O[C@]2(C=C[C@@H](NC(=O)C(Cl)Cl)[C@]3(CC[C@@](C)([C@H]4CC[C@](O)(CC)[C@H](C)O4)O3)O2)[C@H](C)C[C@@H]1C` [FLC-00493-1•Na], in experiment [1], the “SI MV4-11” value worked out at 10.6 and the IC50 stood at 5.43 nM. Moreover, the half-maximal inhibitory concentration (IC50) in experiment [2] was 57.7 nM. Moreover, in experiment [3], the “SI A2780Cis” value is reported as 26.9 and the IC50 was 2.14 nM.
On the same counts, the results for `CC[C@@H](C(=O)[C@@H](C)[C@@H](O)[C@H](C)[C@@H]1O[C@@H]([C@@H](CC)C(=O)O)CC[C@@H]1C)[C@H]1O[C@]2(C=C[C@@H](NC(=O)OCCN(C)C)[C@]3(CC[C@@](C)([C@H]4CC[C@](O)(CC)[C@H](C)O4)O3)O2)[C@H](C)C[C@@H]1C` [FLC-00497-1•Na] are 8.2, 278 nM, 2280 nM, 8.2 and 278 nM.
With `CC[C@@H](C(=O)[C@@H](C)[C@@H](O)[C@H](C)[C@@H]1O[C@@H]([C@@H](CC)C(=O)O)CC[C@@H]1C)[C@H]1O[C@]2(C=C[C@@H](NC(=O)OCCCN(C)C)[C@]3(CC[C@@](C)([C@H]4CC[C@](O)(CC)[C@H](C)O4)O3)O2)[C@H](C)C[C@@H]1C` [FLC-00498-1•Na], in experiment [1], the “SI MV4-11” value amounted to 3.2 and the IC50 stood at 1560 nM. For the same compound, in experiment [2], the IC50 is 5010 nM. Also, in experiment [3], the “SI A2780Cis” value is 6.6 and the 50% inhibitory concentration (IC50) is 758 nM.
The matching figures for `CC[C@@H](C(=O)[C@@H](C)[C@@H](O)[C@H](C)[C@@H]1O[C@@H]([C@@H](CC)C(=O)O)CC[C@@H]1C)[C@H]1O[C@]2(C=C[C@@H](NC(=O)CBr)[C@]3(CC[C@@](C)([C@H]4CC[C@](O)(CC)[C@H](C)O4)O3)O2)[C@H](C)C[C@@H]1C` [FLC-00501-1•Na, C20-aminosalinomycin 2-bromoacetamide]: 1.6, 1740 nM, 2830 nM, 1.3 and 2230 nM.
Turning to `CC[C@@H](C(=O)[C@@H](C)[C@@H](O)[C@H](C)[C@@H]1O[C@@H]([C@@H](CC)C(=O)O)CC[C@@H]1C)[C@H]1O[C@]2(C=C[C@@H](NS(=O)(=O)c3ccc(C)cc3)[C@]3(CC[C@@](C)([C@H]4CC[C@](O)(CC)[C@H](C)O4)O3)O2)[C@H](C)C[C@@H]1C` [FLC-00502-1•Na], in experiment [1], the “SI MV4-11” value was determined as 28.1 and the IC50 was 3.3 nM. In addition, the concentration for half-maximal inhibition (IC50) in experiment [2] amounted to 92.7 nM. For the same compound, in experiment [3], the “SI A2780Cis” value was determined as 52.7 and the IC50 stood at 1.76 nM.
The matching figures for `CC[C@@H](C(=O)[C@@H](C)[C@@H](O)[C@H](C)[C@@H]1O[C@@H]([C@@H](CC)C(=O)O)CC[C@@H]1C)[C@H]1O[C@]2(C=C[C@@H](NS(=O)(=O)c3ccc(Br)cc3)[C@]3(CC[C@@](C)([C@H]4CC[C@](O)(CC)[C@H](C)O4)O3)O2)[C@H](C)C[C@@H]1C` [FLC-00504-1•Na]: 20.7, 4.4 nM, 91.3 nM, 30.5 and 2.99 nM.
The matching figures for `CC[C@@H](C(=O)[C@@H](C)[C@@H](O)[C@H](C)[C@@H]1O[C@@H]([C@@H](CC)C(=O)O)CC[C@@H]1C)[C@H]1O[C@]2(C=C[C@@H](NS(=O)(=O)c3cccs3)[C@]3(CC[C@@](C)([C@H]4CC[C@](O)(CC)[C@H](C)O4)O3)O2)[C@H](C)C[C@@H]1C` [FLC-00505-1•Na]: 8.3, 14 nM, 116 nM, 15.2 and 7.61 nM.
